Publication PMC10035947, “Development of novel anilinoquinazoline-based carboxylic acids as non-classical carbonic anhydrase IX and XII inhibitors” (Journal of Enzyme Inhibition and Medicinal Chemistry, 2023)

Columns and labels:
hCA I = molecular target: T1, hCA I (Homo sapiens, UniProt P00915); assay: stopped flow CO2 hydrase assay; format: biochemical; conditions: mean from 3 assays
T1 construct: made in house
Procedure: (§1) Carbonic anhydrase inhibition assay
(§2) The carbonic anhydrase catalyzed CO2 hydration actions for the quinazoline-based […]
(§3) Photophysics stopped-flow, as described previously. The enzymes are recombinant proteins prepared in our lab. Phenol red (at a concentration of 0.2 mM) has been used as indicator, working at the absorbance maximum of 557 nm, with 20 mM Hepes (pH 7.5) as buffer, and 20 mM Na2SO4 (for maintaining constant the ionic strength), following the initial rates of the CA- […]
(§4) 1.7 to 17 mM for the determination of the kinetic parameters and inhibition constants. For each […]
(§5) initial velocity. The uncatalyzed rates were determined in the same manner and subtracted from the total observed rates. Stock solutions of inhibitor (0.1 mM) were prepared in distilled-deionized water and dilutions up to 0.01 nM were done thereafter with the assay buffer. Inhibitor and enzyme solutions were preincubated together for 15 min at room temperature prior to assay, in order to allow for the formation of the E-I complex. The inhibition constants were obtained by non-linear least-squares methods using PRISM 3 and the Cheng-Prusoff equation, and represent the mean from at least three different determinations.

hCA IX = molecular target: T2, hCA IX (Homo sapiens, UniProt Q16790); assay: stopped flow CO2 hydrase assay; format: biochemical
T2 construct: made in house
Procedure: as §1, §2, §3, §4, §5

hCA XII = molecular target: T3, hCA XII (Homo sapiens, UniProt O43570); assay: stopped flow CO2 hydrase assay; format: biochemical
T3 construct: made in house
T3 sequence (O43570 25-354): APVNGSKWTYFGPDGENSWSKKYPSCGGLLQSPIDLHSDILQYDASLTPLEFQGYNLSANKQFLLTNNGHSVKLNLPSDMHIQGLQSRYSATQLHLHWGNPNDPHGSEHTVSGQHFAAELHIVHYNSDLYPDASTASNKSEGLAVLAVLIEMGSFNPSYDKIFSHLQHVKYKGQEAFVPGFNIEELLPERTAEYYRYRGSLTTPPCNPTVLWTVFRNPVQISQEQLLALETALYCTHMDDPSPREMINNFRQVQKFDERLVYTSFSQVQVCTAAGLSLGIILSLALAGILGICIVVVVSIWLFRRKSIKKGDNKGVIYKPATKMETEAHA
Procedure: as §1, §2, §3, §4, §5

K-562 = assay: NCI SRB assay; format: cell-based, human
RPMI-8226 = assay: NCI SRB assay; format: cell-based, human
A549/ATCC = assay: NCI SRB assay; format: cell-based, human; conditions: A549/ATCC
HOP-62 = assay: NCI SRB assay; format: cell-based, human
NCI-H23 = assay: NCI SRB assay; format: cell-based, human
NCI-H522 = assay: NCI SRB assay; format: cell-based, human
HCC-2998 = assay: NCI SRB assay; format: cell-based, human
HCT-15 = assay: NCI SRB assay; format: cell-based, human
HT29 = assay: NCI SRB assay; format: cell-based, human
SF-268 = assay: NCI SRB assay; format: cell-based, human
U251 = assay: NCI SRB assay; format: cell-based, human
MALME-3M = assay: NCI SRB assay; format: cell-based, human
M14 = assay: NCI SRB assay; format: cell-based, human
MDA-MB-435 = assay: NCI SRB assay; format: cell-based
SK-MEL-28 = assay: NCI SRB assay; format: cell-based, human
SK-MEL-5 = assay: NCI SRB assay; format: cell-based, human
IGROV1 = assay: NCI SRB assay; format: cell-based, human
OVCAR-4 = assay: NCI SRB assay; format: cell-based, human
OVCAR-8 = assay: NCI SRB assay; format: cell-based, human
786-0 = assay: NCI SRB assay; format: cell-based, human
A498 = assay: NCI SRB assay; format: cell-based, human
MCF7 = assay: NCI SRB assay; format: cell-based, human
BT-549 = assay: NCI SRB assay; format: cell-based, human
T-47D = assay: NCI SRB assay; format: cell-based, human

T1 sequence (P00915 whole entry): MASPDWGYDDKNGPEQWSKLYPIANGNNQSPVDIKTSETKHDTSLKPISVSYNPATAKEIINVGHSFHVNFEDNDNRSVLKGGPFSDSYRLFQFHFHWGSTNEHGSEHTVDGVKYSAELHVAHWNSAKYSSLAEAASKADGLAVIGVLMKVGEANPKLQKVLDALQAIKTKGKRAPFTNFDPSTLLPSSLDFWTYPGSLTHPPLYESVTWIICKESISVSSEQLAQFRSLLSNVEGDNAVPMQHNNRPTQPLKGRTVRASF

How did the Ki (hCA I) turn out when `Cc1ccc(-c2nc(Nc3ccc(C(=O)O)cc3)c3ccccc3n2)cc1` [8b, 4-((2-(p-Tolyl)quinazolin-4-yl)amino)benzoic acid] was run?
The Ki was 73200 nM.

And the “Selectivity ratio I/IX” value (hCA IX; KI hCA I / KI hCA IX)?
The value was 45.8.

What about the “Selectivity ratio II/IX” value (hCA IX; KI hCA II / KI hCA IX) of the same compound?
The value was 2.44.

And the Ki (hCA IX; mean from 3 assays)?
The Ki was 1600 nM.

And the “Selectivity ratio I/XII” value (hCA XII; KI hCA I / KI hCA XII)?
The value was 174.3.

And the “Selectivity ratio II/XII” value (hCA XII; KI hCA II / KI hCA XII)?
Its value is 9.29.

And the Ki (hCA XII; mean from 3 assays)?
Its Ki is 420 nM.

What about the GI% (K-562; K-562, 10 μM) of the same compound?
The GI% was 23%.

What about the “Growth Percent” value (K-562; K-562, 1.00E-5 Molar) of the same compound?
Its value is 76.80%.

And the GI% (RPMI-8226; RPMI-8226, 10 μM)?
The GI% was 45%.

What about the “Growth Percent” value (RPMI-8226; RPMI-8226, 1.00E-5 Molar) of the same compound?
The value was 55.07%.

What about the GI% (A549/ATCC; 10 μM) of the same compound?
Its GI% is “– (Only GI% higher than 20% are shown)”.

What about the “Growth Percent” value (A549/ATCC; 1.00E-5 Molar) of the same compound?
The value was 95.03%.

And the GI% (HOP-62; HOP-62, 10 μM)?
Its GI% is “– (Only GI% higher than 20% are shown)”.

And the “Growth Percent” value (HOP-62; HOP-62, 1.00E-5 Molar)?
Its value is 88.98%.

What about the GI% (NCI-H23; NCI-H23, 10 μM) of the same compound?
Its GI% is “– (Only GI% higher than 20% are shown)”.

And the “Growth Percent” value (NCI-H23; NCI-H23, 1.00E-5 Molar)?
Its value is 87.14%.

What about the GI% (NCI-H522; NCI-H522, 10 μM) of the same compound?
Its GI% is “– (Only GI% higher than 20% are shown)”.

What about the “Growth Percent” value (NCI-H522; NCI-H522, 1.00E-5 Molar) of the same compound?
Its value is 91.02%.

What about the GI% (HCC-2998; HCC-2998, 10 μM) of the same compound?
The GI% was 28%.

What about the “Growth Percent” value (HCC-2998; HCC-2998, 1.00E-5 Molar) of the same compound?
Its value is 72.45%.

What about the GI% (HCT-15; HCT-15, 10 μM) of the same compound?
Its GI% is 49%.

What about the “Growth Percent” value (HCT-15; HCT-15, 1.00E-5 Molar) of the same compound?
The value was 50.85%.

And the GI% (HT29; HT29, 10 μM)?
The GI% was “– (Only GI% higher than 20% are shown)”.

And the “Growth Percent” value (HT29; HT29, 1.00E-5 Molar)?
The value was 87.37%.

What about the GI% (SF-268; SF-268, 10 μM) of the same compound?
Its GI% is 30%.

What about the “Growth Percent” value (SF-268; SF-268, 1.00E-5 Molar) of the same compound?
The value was 70.34%.

And the GI% (U251; U251, 10 μM)?
The GI% was “– (Only GI% higher than 20% are shown)”.

And the “Growth Percent” value (U251; U251, 1.00E-5 Molar)?
The value was 86.94%.

And the GI% (MALME-3M; 10 μM)?
Its GI% is “– (Only GI% higher than 20% are shown)”.

And the “Growth Percent” value (MALME-3M; 1.00E-5 Molar)?
Its value is 101.05%.

What about the GI% (M14; M14, 10 μM) of the same compound?
Its GI% is “– (Only GI% higher than 20% are shown)”.

And the “Growth Percent” value (M14; M14, 1.00E-5 Molar)?
Its value is 80.88%.

And the GI% (MDA-MB-435; MDA-MB-435, 10 μM)?
Its GI% is “– (Only GI% higher than 20% are shown)”.

And the “Growth Percent” value (MDA-MB-435; MDA-MB-435, 1.00E-5 Molar)?
The value was 100.06%.

And the GI% (SK-MEL-28; SK-MEL-28, 10 μM)?
Its GI% is “– (Only GI% higher than 20% are shown)”.

What about the “Growth Percent” value (SK-MEL-28; SK-MEL-28, 1.00E-5 Molar) of the same compound?
Its value is 84.51%.

And the GI% (SK-MEL-5; SK-MEL-5, 10 μM)?
Its GI% is 28%.

What about the “Growth Percent” value (SK-MEL-5; SK-MEL-5, 1.00E-5 Molar) of the same compound?
The value was 71.66%.

And the GI% (IGROV1; IGROV1, 10 μM)?
The GI% was “– (Only GI% higher than 20% are shown)”.

And the “Growth Percent” value (IGROV1; IGROV1, 1.00E-5 Molar)?
Its value is 92.17%.

And the GI% (OVCAR-4; OVCAR-4, 10 μM)?
Its GI% is 26%.

And the “Growth Percent” value (OVCAR-4; OVCAR-4, 1.00E-5 Molar)?
The value was 74.11%.

And the GI% (OVCAR-8; OVCAR-8, 10 μM)?
Its GI% is “– (Only GI% higher than 20% are shown)”.

What about the “Growth Percent” value (OVCAR-8; OVCAR-8, 1.00E-5 Molar) of the same compound?
Its value is 81.90%.

What about the GI% (786-0; 786-0, 10 μM) of the same compound?
Its GI% is “– (Only GI% higher than 20% are shown)”.

What about the “Growth Percent” value (786-0; 786-0, 1.00E-5 Molar) of the same compound?
The value was 85.63%.

What about the GI% (A498; A498, 10 μM) of the same compound?
The GI% was “– (Only GI% higher than 20% are shown)”.

And the “Growth Percent” value (A498; A498, 1.00E-5 Molar)?
The value was 112.03%.

And the GI% (MCF7; MCF7, 10 μM)?
The GI% was 37%.

What about the “Growth Percent” value (MCF7; MCF7, 1.00E-5 Molar) of the same compound?
The value was 63.19%.

And the GI% (BT-549; BT-549, 10 μM)?
The GI% was 41%.

And the “Growth Percent” value (BT-549; BT-549, 1.00E-5 Molar)?
The value was 59.16%.

What about the GI% (T-47D; 10 μM) of the same compound?
The GI% was 32%.

And the “Growth Percent” value (T-47D; 1.00E-5 Molar)?
The value was 68.59%.
